Experiment [1] deals with wheals induced by intradermal injections of histamine. As to the kind of experiment: reduction by 50% of wheals induced by intradermal injections of histamine into guinea pigs. Type of experiment: in vivo, guinea pig. The note with it: Cavia porcellus, po, 1 h, orally administered one hour prior to the histamine injection, read-out: ED50 (amount required to reduce by 50% wheals induced by intradermal injections of histamine).

Experiment [2] concerns aerosol antigen induced bronchial spasms and death. Description: prevention of aerosol antigen induced bronchial spasms and death in the guinea pig. It is filed as in vivo. The note with it: Cavia porcellus, po, orally, read-out: minimal amount required to prevent aerosol antigen induced bronchial spasms and death. From the text: The minimal amounts of the compounds of Examples 4,5,6 and 9 required to prevent aerosol antigen induced bronchial spasms and death in the quinea pig are respectively 1.0, 4.0, 1.0 and 4.0 milligrams per kilogram of body weight orally.

As usually defined, the ED50 is the dose at which the effect has come halfway, by size or by number of responders.

Each structure is given as a SMILES string.

Take `Cl.O=C(CCCN1CCC(C(O)(c2ccccc2)c2ccccc2)CC1)c1cccs1` [Example 4, 4-[4-(α -Hydroxy-α -phenylbenzyl)piperidino] -1-(2-thienyl)-butan-1-one hydrochloride]: the ED50 in experiment [1] worked out at 3.1 mg/kg. Moreover, the minimal effective dose in experiment [2] was found to be 1 mg/kg.
Taken in the same sequence, the figures for `Cc1ccc(C(=O)CCCN2CCC(C(O)(c3ccccc3)c3ccccc3)CC2)cc1.Cl` [Example 5, 4-[4-(α-Hydroxy-α-phenylbenzyl)piperidino] -4'-methylbutyrophenone hydrochloride] were 1.9 mg/kg and 4 mg/kg.
On to `CC(C)(C)c1ccc(C(=O)CCCN2CCC(C(O)(c3ccccc3)c3ccccc3)CC2)cc1.Cl` [Example 6, 4'-tert-Butyl-4-[4-(α-hydroxy-α-phenylbenzyl)piperidino] butyrophenone hydrochloride], for which, in experiment [1], the ED50 turned out to be 1.8 mg/kg. In addition, in experiment [2], the minimal effective dose turned out to be 1 mg/kg.
As for `O=C(CCCN1CCC(C(O)(c2ccccc2)c2ccccc2)CC1)c1ccc(N2CCCCC2)cc1` [Example 9, 4-[4-(α-Hydroxy-α-phenylbenzyl)piperidino]-4'-piperidinobutyrophenone], in experiment [1], the ED50 amounted to 3.4 mg/kg. The minimal effective dose in experiment [2] came to 4 mg/kg.
